The values below come from US6444696B1, “Pyrazole derivatives P38 MAP kinase inhibitors” (Syntex (U.S.A.) LLC, priority 1998, dated 2002).

Structures are written as SMILES. Structures can show the parent of a compound that is named as a salt.

For one data set, the target named is T1, p38 MAP kinase (Homo sapiens, UniProt Q16539).
T1 construct: made in house; host or cells: E. coli (co-expressed with SEK-1 and MEKK to obtain the phosphorylated form)
T1 sequence (Q16539 whole entry): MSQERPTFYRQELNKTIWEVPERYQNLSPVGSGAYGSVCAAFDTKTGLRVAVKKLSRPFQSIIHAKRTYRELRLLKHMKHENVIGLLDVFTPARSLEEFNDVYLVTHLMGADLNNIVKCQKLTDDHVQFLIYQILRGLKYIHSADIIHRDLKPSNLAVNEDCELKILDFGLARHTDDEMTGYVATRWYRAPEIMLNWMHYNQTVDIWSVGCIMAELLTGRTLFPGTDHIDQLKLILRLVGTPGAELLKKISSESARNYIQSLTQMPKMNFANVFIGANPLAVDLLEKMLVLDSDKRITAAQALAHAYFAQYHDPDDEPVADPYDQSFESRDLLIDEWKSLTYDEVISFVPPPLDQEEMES
The data set can be described thus: Inhibition of p-38 (MAP) kinase, in vitro assay (transfer of γ-33P from ATP to Myelin Basic Protein). The note with it: phosphorylated recombinant p38 MAP kinase, MBP substrate, γ-33P-ATP, 30° C.; read-out: IC50, μM (p-38 inhibitory activity). Type of data set: biochemical. Here is the method: The p-38 MAP kinase inhibitory activity of compounds of this invention in vitro was determined by measuring the transfer of the γ-phosphate from γ-^33P-ATP by p-38 kinase to Myelin Basic Protein (MBP), using the a minor modification of the method described in Ahn, N. G.; et al. J. Biol. Chem. Vol. 266(7), 4220-4227, (1991).
The phosphorylated form of the recombinant p38 MAP kinase was expressed with SEK-1 and MEKK in E. Coli and then purified by affinity chromatography using a Nickel column.
The phosphorylated p38 MAP kinase was diluted in kinase buffer (20 mM 3-(N-morpholino)propanesulfonic acid, pH 7.2, 25 mM β-glycerol phosphate, 5 mM ethylene glycol-bis(beta-aminoethyl ether)-N,N,N′,N′-tetraacetic acid, 1 mM sodium vanadate, 1 mM dithiothreitol, 40 mM magnesium chloride). Test compound dissolved in DMSO or only DMSO (control) was added and the samples were incubated for 10 min at 30° C. The kinase reaction was initiated by the addition of a substrate cocktail containing MBP and γ-^33P-ATP. After incubating for an additional 20 min at 30° C., the reaction was terminated by adding 0.75% phosphoric acid. The phosphorylated MBP was then separated from the residual γ-^33P-ATP using a phosphocellulose membrane (Millipore, Bedford, Mass.) and quantitated using a scintillation counter (Packard, Meriden, Conn.).
Compounds of the invention were active in this assay.
Turning to `Nc1c(C(=O)c2cccc(CCS(N)(=O)=O)c2)cnn1-c1ccc(F)cc1` [compound 50, 5-Amino4-[3-(2-aminosulfonylethyl)benzoyl]-1-(4-fluorophenyl)pyrazole], the IC50 was found to be 1.25 µM. Regarding `Nc1c(C(=O)c2cccc(CCCN3CCOCC3)c2)cnn1-c1ccc(F)cc1` [compound 6, 5-Amino-1-(4-fluorophenyl)-4-[3-(3-morpholin-4-ylpropyl)benzoyl]pyrazole hydrochloride], the half-inhibitory concentration (IC50) stood at 1.74 µM. With `Nc1c(C(=O)c2cccc(C#CCN3CCCCC3)c2)cnn1-c1ccc(F)cc1` [compound 9, 5-amino-1-(4-fluorophenyl)-4-[3-{3-(piperidin-1-yl)prop-1-ynyl}benzoyl]pyrazole.HCl], the IC50 worked out at 1.32 µM.

As to `Nc1c(C(=O)c2cccc(OCCN3CCOCC3)c2)cnn1-c1ccc(F)cc1` [compound 14, 5-Amino-1-(4-fluorophenyl)-4-[3-{2-(morpholin-4-yl)ethoxy}benzoyl]pyrazole hydrochloride], the IC50 is 1.27 µM. For the molecule `Nc1c(C(=O)c2cccc(C#CCN3CCOCC3)c2)cnn1-c1ccc(F)cc1` [compound 3, 5-Amino-1-(4-fluorophenyl)-4-[3-{3-(morpholin-4-yl)prop-1-ynyl}benzoyl]pyrazole], the IC50 turned out to be 1.78 µM.

System in a further data set: not given
Assay: not given
Conditions: not given
The molecule `Nc1c(C(=O)c2cccc(OCc3ccccn3)c2)cnn1-c1ccc(F)cc1` [compound 82, 5-amino-1-(4-fluorophenyl)-4-[3-(pyridin-2-ylmethoxy)benzoyl]pyrazole] registered a melting point of 176.1 to 177.3 °C. Same read-out and setting: with `Nc1c(C(=O)c2cccc(OC[C@@H]3COC(=O)O3)c2)cnn1-c1ccc(F)cc1` [compound 171, 5-amino-1-(4-fluorophenyl)-4-{3-[(1,3-dioxolan-2-on-4(R)-yl)methoxy]benzoyl}pyrazole] the figure was 144.3 to 144.9 °C. Regarding `Nc1c(C(=O)c2cccc(CN3CCCCC3)c2)cnn1-c1ccc(F)cc1F` [compound 86, 5-Amino-1-(2,4-difluorophenyl)-4-[3-(1-piperidinylmethyl)benzoyl]pyrazole], the melting point was in the range of 116.6 to 118.6 °C. As for `Nc1c(C(=O)c2cccc(-c3cccnc3)c2)cnn1-c1ccc(S(N)(=O)=O)cc1` (as salt: HCl) [compound 68, 5-amino-1-(4-sulfamoylphenyl)-4-[3-(pyridin-3-yl)benzoyl]pyrazole], the melting point is over 300 °C. In turn, `CC(=O)OCC(COc1cccc(C(=O)c2cnn(-c3ccc(F)cc3)c2N)c1)OC(C)=O` (stereo in doubt) [compound 165, 5-amino-1-(4-fluorophenyl)-4-[3-{2(S),3-(diacetoxy)propoxy}benzoyl]pyrazole] returned a melting point of 91.4 to 92.7 °C. On to `Nc1c(C(=O)c2cccc(OCCN3CCOCC3)c2)cnn1-c1c(Cl)cccc1Cl` [compound 98, 5-amino-1-(2,6-dichlorophenyl)-4-[3-(2-morpholin-4-ylethoxy)benzoyl]pyrazole], for which the melting point was in the range of 144.2 to 145.1 °C. The same measure, in the same setting: with `Nc1c(C(=O)c2cccc(CCCN3CCCCC3)c2)cnn1-c1ccc(F)cc1` (as salt: HCl) [compound 32, 5-amino-1-(4-fluorophenyl)-4-[3-(3-piperidin-1-ylpropyl)benzoyl]pyrazole] the figure was 227.1 to 277.7 °C; with `CC(C)NC(=O)Oc1cccc(C(=O)c2cnn(-c3ccc(F)cc3)c2N)c1`, 225.2 to 230.1 °C; with `Nc1c(C(=O)c2cccc(OCC(=O)O)c2)cnn1-c1ccc(F)cc1` [compound 119], 215.9 to 216.2 °C.

In the case of `COC(=O)OCC(COc1cccc(C(=O)c2cnn(-c3ccc(F)cc3)c2N)c1)OC(=O)OC` (stereo in doubt) [compound 168, 5-amino-1-(4-fluorophenyl)-4-[3-{2(S),3-(dimethoxycarbonyloxy)propoxy}benzoyl]pyrazole], the melting point lay in the range of 62 to 65 °C. The same measure, in the same setting: the same measure for `Nc1c(C(=O)c2cccc(C(O)CO)c2)cnn1-c1ccc(F)cc1F` (centres unmarked) [compound 103, 5-amino-1-(2,4-difluorophenyl)-4-[3-(1,2-dihydroxyethyl)benzoyl]pyrazole]: 59 to 64 °C; for `CCNC(=O)Oc1cccc(C(=O)c2cnn(-c3ccc(F)cc3)c2N)c1`: 201.2 to 202.8 °C; for `Nc1c(C(=O)c2cccc(OCC(=O)N3CCOCC3)c2)cnn1-c1ccc(F)cc1` [compound 35, 5-amino-1-(4-fluorophenyl)-4-[3-(morpholin-4-ylcarbonylmethyloxy)benzoyl]pyrazole]: 124.3 to 126.6 °C. With `Cc1ccc(-n2ncc(C(=O)c3cccc(-c4cccnc4)c3)c2N)cc1` (as salt: HCl) [compound 65, 5-amino-1-(4-methylphenyl)-4-[3-(pyridin-3-yl)benzoyl]pyrazole], the melting point is 281.3 to 282.8 °C.

The molecule `Nc1c(C(=O)c2cccc(CCCN3CCS(=O)(=O)CC3)c2)cnn1-c1ccc(F)cc1F` [compound 92, 5-amino-1-(2,4-difluorophenyl)-4-[3-{3-(S,S-dioxo-thiomorpholin-4-yl)propyl}benzoyl]pyrazole] displayed a melting point of 123.8 to 125.9 °C. Molecule `CC(C)(O)C#Cc1cccc(C(=O)c2cnn(-c3ccc(F)cc3)c2N)c1` [compound 87, 5-amino-1-(4-fluorophenyl)-4-[3-(3-hydroxy-3-methyl-but-1-ynyl)benzoyl]pyrazole] returned a melting point of 152.6 to 153.1 °C. For `Nc1c(C(=O)c2cccc(C#Cc3cccnc3)c2)cnn1-c1ccc(F)cc1F` [compound 88, 5-amino-1-(2,4-difluorophenyl)-4-[3-(3-pyridylethynyl)benzoyl]pyrazole], the melting point lay in the range of 183.5 to 184 °C. The same measure, in the same setting: the same measure for `Nc1c(C(=O)c2cccc(OCCN3CCOCC3)c2)cnn1-c1ccccc1F` [compound 97, 5-amino-1-(2-fluorophenyl)-4-[3-(2-morpholin-4-ylethoxy)benzoyl]pyrazole]: 130.8 to 135.1 °C; for `Cc1ccccc1-n1ncc(C(=O)c2cccc(C(O)CO)c2)c1N` (centres unmarked) [compound 109, 5-amino-1-(2-methylphenyl)-4-[3-(1,2-dihydroxyethyl)benzoyl]pyrazole]: 83 to 85.5 °C.

`CCC1(CC)OC[C@H](COc2cccc(C(=O)c3cnn(-c4ccc(F)cc4)c3N)c2)O1` [compound 173, 5-amino-1-(4-fluorophenyl)-4-{3-[(2,2-diethyl-1,3-dioxolan-4(S)-yl)methoxy]benzoyl}pyrazole] yielded a melting point of 74.1 to 75.7 °C. `Nc1c(C(=O)c2cccc(OCCn3ncccc3=O)c2)cnn1-c1ccc(F)cc1` [compound 128]: the melting point was 174.5 to 178 °C. The same measure, in the same setting: with `CC1(C)OCC(COc2cccc(C(=O)c3cnn(-c4ccc(F)cc4)c3N)c2)O1` (stereo in doubt) [compound 170, 5-amino-1-(4-fluorophenyl)-4-{3-[(2,2-dimethyl-1,3-dioxolan-4(S)-yl)methoxy]benzoyl}pyrazole] the figure was 78.3 to 80 °C. Take `Nc1c(C(=O)c2cccc(CN3CCOCC3)c2)cnn1-c1ccc(F)cc1F` [compound 131]: the melting point fell in the range of 127.3 to 128.5 °C. Still for that read-out and setting: with `Nc1c(C(=O)c2cccc(CCc3cccnc3)c2)cnn1-c1ccc(F)cc1F` [compound 91, 5-amino-1-(2,4-difluorophenyl)-4-[3-(3-pyridylethyl)benzoyl]pyrazole] the figure was 153.4 to 153.7 °C. On the same count and under the same terms, the same measure for `Nc1c(C(=O)c2cccc(CN3CCC(O)CC3)c2)cnn1-c1ccc(F)cc1F` [compound 133]: 141.5 to 145.5 °C; for `COc1cccc(-n2ncc(C(=O)c3cccc(-c4cccnc4)c3)c2N)c1` (as salt: HCl) [compound 66, 5-amino-1-(3-methoxyphenyl)-4-[3-(pyridin-3-yl)benzoyl]pyrazole]: 256.1 to 256.5 °C.

`CCC1(C)OC[C@H](COc2cccc(C(=O)c3cnn(-c4ccc(F)cc4)c3N)c2)O1` (stereo partly drawn) [compound 174, 5-amino-1-(4-fluorophenyl)-4-{3-[(2-methyl-2-ethyl-1,3-dioxolan-4(S)-yl)methoxy]benzoyl}pyrazole] registered a melting point of 81.1 to 83 °C. Same read-out and setting: with `Nc1c(C(=O)c2cccc(C#CC3(O)CCCC3)c2)cnn1-c1ccc(F)cc1F` [compound 94, 5-amino-1-(2,4-difluorophenyl)-4-[3-{2-(1-hydroxycyclopentyl)ethynyl}benzoyl]pyrazole] the figure was 176.8 to 177.1 °C; with `CN1CCN(CCCc2cccc(C(=O)c3cnn(-c4ccc(F)cc4)c3N)c2)CC1` (as salt: HCl) [compound 30, 5-amino-1-(4-fluorophenyl)-4-{3-[3-(4-methylpiperazin-1-yl)propyl]benzoyl}pyrazole], 254.5 to 254.9 °C.

Molecule `Nc1c(C(=O)c2cccc(CCC3(O)CCCC3)c2)cnn1-c1ccc(F)cc1F` [compound 95, 5-amino-1-(2,4-difluorophenyl)-4-[3-{2-(1-hydroxycyclopentyl)ethyl}benzoyl]pyrazole] had a melting point of 120.3 to 121 °C.
